The subject of data set [1] is HeLa (cervical carcinoma). The data set is described as follows: Proliferation assay (MTT, 72 h) on HeLa. The data set is classed as cell-based. The settings on record: Homo sapiens. As for the experimental part: (§1) Human carcinoma cell lines A549 (lung carcinoma), HeLa (cervical carcinoma), SW620 (colorectal adenocarcinoma, metastatic), and CFPAC-1 (pancreatic cancer, derived from metastatic: liver), normal human lung (WI38) and foreskin (HFF-1) fibroblasts were obtained from the American Type Culture Collection (ATCC). Cells were cultured in humidified atmosphere at 37 °C with 5% CO2. As growth medium, Dulbecco’s modified Eagle medium (DMEM) was used with the addition of foetal bovine serum (10%), L-glutamine (2 mM) and antibiotics: streptomycin (100 µg/ml) and penicillin (100 U/ml).
(§2) Cells were seeded onto 96-well microtiter plates at a seeding density of 3000 cells/well for carcinoma cell lines, and 5000 cells/well for normal human fibroblasts. The next day, cells were treated with test agents in five different concentrations (0.01–100 µM) and further incubated for 72 h. […] Following 72 h incubation, the MTT assay was performed and measured absorbances were transformed into percentage of cell growth as described previously. Results were obtained from three independent experiments. IC50 values were calculated using linear regression analysis and results were statistically analysed by ANOVA, Tukey post-hoc test (p < .05).

The subject of data set [2] is SW620 (colorectal adenocarcinoma, metastatic). Nature of the data set: Proliferation assay (MTT, 72 h) on SW620. The data set is classed as cell-based. The settings on record: Homo sapiens, SW-620. As for the experimental part:
as §1, §2

Data set [3] has as its system CFPAC-1 (ductal pancreatic adenocarcinoma). Nature of the data set: Proliferation assay (MTT, 72 h) on CFPAC-1. The settings on record: Homo sapiens. The data set is classed as cell-based. As for the experimental part: as §1, §2
The subject of data set [4] is HFF-1 normal human foreskin fibroblasts. Nature of the data set: Proliferation assay (MTT, 72 h) on normal foreskin fibroblasts HFF-1. The data set is classed as cell-based. The settings on record: compounds 11a–e tested in HFF-1 cell line, read-out: IC50 WI38/HFF-1 (HFF-1). As for the experimental part:
as §1, §2

The test system of the next data set is A549 (lung carcinoma). The data set is described as follows: Proliferation assay (MTT, 72 h) on A549. The settings on record: Homo sapiens, A549 lung adenocarcinoma. The data set is classed as cell-based. The procedure: as §1, §2
Another data set deals with A549 cells. Nature of the data set: Annexin V-FITC assay for apoptosis detection. The data set is classed as cell-based, human. As for the experimental part:
Staining of the cells was performed by Annexin-V-FITC Staining kit (Santa Cruz Biotechnology, Dallas, TX) according to the manufacturer’s instructions. Cells were visualised by fluorescent microscope (Olympus) at magnification of 40×.
Further biological evaluations of compound 12b which was identified as a candidate were performed in order to investigate whether its antiproliferative effect in non-small cell lung cancer (A549) could be associated with induction of apoptosis.

Another data set relates to p-IGF-1Rβ. The data set is described as follows: Western blot analysis of p-IGF-1Rβ in A549 cells. The conditions noted are these: A549, 2 × IC50, 48 h. The data set is classed as cell-based, human. The procedure:
(§3) Cells were seeded in 6-well plates in the concentration depending on tested cell line varying from 1 × 10^5 to 2 × 10^5 cells/well. […] Following treatment, cells were lysed with RIPA buffer supplemented with protease and phosphatase inhibitors (Roche). Total proteins (50 µg) were resolved on 10 or 12% polyacrilamide gels, depending on protein size, and transferred onto PVDF membranes that were blocked for 1 h with either 4% BSA or 5% non-fat milk prepared in tris-buffered saline (TBST). Membranes were probed with primary antibodies against GPLD1 (Abcam), PDGFRβ, p-IGF-1Rβ, p-p38 MAPK, and p-NF-κB-p65 from cell signalling technology at 4 °C overnight. The next day, membranes were washed in TBST and probed with horseradish peroxidase-conjugated secondary antibodies goat anti-mouse (Santa Cruz Biotechnology) or goat anti-rabbit (Santa Cruz Biotechnology). Protein bands were visualised using chemiluminescence substrate and ImageQuant LAS 500 (GE Healthcare, Chicago, IL). Following visualisation, protein band density was analysed by Quantity One 1-D Analysis Software (Bio-Rad, Hercules, CA).
(In general: In western blotting, separated proteins are transferred to a membrane and probed.)

The test system of data set [5] is WI38 normal human lung fibroblasts. The data set is described as follows: Proliferation assay (MTT, 72 h) on normal lung fibroblasts WI38. The data set is classed as cell-based. The settings on record: WI-38, read-out: IC50 WI38/HFF-1 (WI38). The procedure: as §1, §2
For a further data set, the system named is p-p38 MAPK. Nature of the data set: Western blot analysis of p-p38 MAPK in A549 cells. The data set is classed as cell-based, human. The settings on record: A549, 2 × IC50, 48 h. The procedure:
as §3

The test system of another data set is PDGFRβ. The data set is described as follows: Western blot analysis of PDGFR in A549 cells. The data set is classed as cell-based, human. The settings on record: A549, 2 × IC50, 48 h. As for the experimental part: as §3
Another data set relates to GPLD1. The data set is described as follows: Western blot analysis of GPLD1 in A549 cells. The settings on record: A549, 2 × IC50, 48 h. The data set is classed as cell-based, human. The procedure:
as §3

The subject of the next data set is p-NF-κB-p65. The data set is described as follows: Western blot analysis of p-NF-κB-p65 in A549 cells. The data set is classed as cell-based, human. The settings on record: A549, 2 × IC50, 48 h. The procedure: as §3
Where [6] appears, read: A549, 48 h, 2 × IC50, versus control.

Here are results for 3 compounds from PMC6009932, “Small molecule purine and pseudopurine derivatives: synthesis, cytostatic evaluations and investigation of growth inhibitory effect in non-small cell lung cancer A549” (Journal of Enzyme Inhibition and Medicinal Chemistry, 2017).

As to `O=c1cc(Cn2cc(Cn3ccc4ccccc43)nn2)c2ccc(O)cc2o1` [Compound 11e, 4-{[4-((1H-Indol-1-yl)methyl)-1H-1,2,3-triazol-1-yl]methyl}-7-hydroxy-2 H-chromen-2-one], the melting point – broadly, the temperature of the solid-liquid transition – lay in the range of 155 to 158 °C. This compound also came in with an IC50 in [1] of 83 µM. The IC50 in data set [2] worked out at 68.5 µM. Moreover, the IC50 in [3] is more than 100 µM. The IC50 in [4] is 40 µM. Further, the IC50 with A549 (lung carcinoma) was found to be 75.4 µM.
In the data set with A549 cells (A549, 48 h, 2 × IC50, PI+), `Clc1ccc(-n2cc(Cn3cnc4ccccc43)nn2)cc1` [Compound 12b, 1-{[1-(4-chlorophenyl)-1H-1,2,3-triazol-4-yl]methyl}-1H-benzo[d]imidazole] had a Secondary necrotic cells of 2.39%. Moreover, in the data set on A549 cells (A549, 48 h, 2 × IC50, PI+/Ann V+), the “Late apoptotic/Primary necrotic cells” value came out at 19.76%. This compound showed an Early apoptotic cells in the data set with A549 cells (A549, 48 h, 2 × IC50, PI−/Ann V+) of 31.14%. The compound further showed a Viable cells in the data set with A549 cells (A549, 48 h, 2 × IC50, PI−/Ann V−) of 46.71%. Further, the “increase in early apoptotic cell population” value in the data set on A549 cells (setting [6]) is 30.62%. For the same compound, in the data set on A549 cells (setting [6]), the “increase in late apoptotic/necrotic cell population” value is recorded as 19.76%. Besides, the induction of apoptosis result in the data set with A549 cells (A549 cells) is recorded as “induced apoptosis”. Moreover, the “expression of p-IGF-1Rβ” value with p-IGF-1Rβ is “downregulated”. The IC50 worked out at 42.2 µM in data set [1]; 91.2 µM in data set [2]; 38.1 µM in [5]; 52.6 µM in data set [3]; 0.79 µM with A549 (lung carcinoma). Besides, in the data set with p-p38 MAPK, the “expression level of p-p38 MAP kinase” value is on record as “marked decline”. The “expression of PDGFR” value in the data set with PDGFRβ is reported as “downregulated”. For the same compound, in the data set on GPLD1, the “expression level of GPLD1 protein” value is recorded as “dramatically reduced”. For the same compound, the “p-NF-κB-p65 subunit expression level” value in the data set on p-NF-κB-p65 is given as “significant reduction”.
As to `Fc1ccc(-n2cc(Cn3ccc4ccccc43)nn2)cc1` [Compound 11a, 1-{[1-(4-Fluorophenyl)-1H-1,2,3-triazol-4-yl]methyl}-1H-indole], the IC50 was more than 100 µM in data set [1]; 43.3 µM in data set [2]; more than 100 µM in data set [3]; more than 100 µM in data set [4]; 44 µM in the data set with A549 (lung carcinoma).
